Laboratory results reported in article PMC10112504, “Novel 4-thiophenyl-pyrazole, pyridine, and pyrimidine derivatives as potential antitumor candidates targeting both EGFR and VEGFR-2; design, synthesis, biological evaluations, and in silico studies” (RSC Advances, 2023).

Experiments:
[1] = tested on: MCF-7; experiment: Anti-proliferative activity, SRB colorimetric assay; assay type: cell-based; conditions: for IC50: Homo sapiens, MCF7, MCF-7 cancer cell line, SRB assay, read-out: Cell lines (IC50 μM) MCF-7; for anti-proliferative activity against MCF-7, in words: authors' grading of Table 1 values, key not given
[2] = tested on: E. coli; experiment: Antibacterial activity, inhibition zone approach; assay type: cell-based, Escherichia coli; conditions: for E. coli Diameter of inhibition zone (mm): Gram-negative bacteria; for antimicrobial activity with E. coli, in words: authors' grading of Table 2 values, key not given; for E. coli % Activity index: gentamicin = 100
[3] = tested on: A. flavus; experiment: Antifungal activity, inhibition zone approach; assay type: cell-based, Aspergillus flavus; conditions: for A. flavus Diameter of inhibition zone (mm): Fungi; for antimicrobial activity with A. flavus, in words: authors' grading of Table 2 values, key not given; for A. flavus % Activity index: ketoconazole = 100
[4] = tested on: HepG-2; experiment: Anti-proliferative activity, SRB colorimetric assay; assay type: cell-based; conditions: for IC50: Homo sapiens, HepG2, HepG-2 cancer cell line, SRB assay, read-out: Cell lines (IC50 μM) HepG-2; for anti-proliferative activity against HepG-2, in words: authors' grading of Table 1 values, key not given
[5] = tested on: S. aureus; experiment: Antibacterial activity, inhibition zone approach; assay type: cell-based, Staphylococcus aureus; conditions: for S. aureus Diameter of inhibition zone (mm): Gram-positive bacteria; for antimicrobial activity with S. aureus, in words: authors' grading of Table 2 values, key not given; for S. aureus % Activity index: gentamicin = 100
[6] = tested on: C. albicans; experiment: Antifungal activity, inhibition zone approach; assay type: cell-based, Candida albicans; conditions: for C. albicans Diameter of inhibition zone (mm): Fungi; for antimicrobial activity with C. albicans, in words: authors' grading of Table 2 values, key not given; for C. albicans % Activity index: ketoconazole = 100
[7] = tested on: P. aeuroginosa; experiment: Antibacterial activity, inhibition zone approach; assay type: cell-based, Pseudomonas aeuroginosa; conditions: for P. aeuroginosa Diameter of inhibition zone (mm): Gram-negative bacteria; for antimicrobial activity with P. aeuroginosa, in words: authors' grading of Table 2 values, key not given; for P. aeuroginosa % Activity index: gentamicin = 100
[8] = tested on: B. subtilis; experiment: Antibacterial activity, inhibition zone approach; assay type: cell-based, Bacillus subtilis; conditions: for B. subtilis Diameter of inhibition zone (mm): Gram-positive bacteria; for antimicrobial activity with B. subtilis, in words: authors' grading of Table 2 values, key not given; for B. subtilis % Activity index: gentamicin = 100
[9] = target: EGFR (Homo sapiens, UniProt P00533); experiment: EGFR inhibitory activity, homogeneous luminescence release assay; assay type: biochemical; conditions: reference erlotinib; read-out: EGFR inhibition IC50
Chain of EGFR (P00533 25-1210): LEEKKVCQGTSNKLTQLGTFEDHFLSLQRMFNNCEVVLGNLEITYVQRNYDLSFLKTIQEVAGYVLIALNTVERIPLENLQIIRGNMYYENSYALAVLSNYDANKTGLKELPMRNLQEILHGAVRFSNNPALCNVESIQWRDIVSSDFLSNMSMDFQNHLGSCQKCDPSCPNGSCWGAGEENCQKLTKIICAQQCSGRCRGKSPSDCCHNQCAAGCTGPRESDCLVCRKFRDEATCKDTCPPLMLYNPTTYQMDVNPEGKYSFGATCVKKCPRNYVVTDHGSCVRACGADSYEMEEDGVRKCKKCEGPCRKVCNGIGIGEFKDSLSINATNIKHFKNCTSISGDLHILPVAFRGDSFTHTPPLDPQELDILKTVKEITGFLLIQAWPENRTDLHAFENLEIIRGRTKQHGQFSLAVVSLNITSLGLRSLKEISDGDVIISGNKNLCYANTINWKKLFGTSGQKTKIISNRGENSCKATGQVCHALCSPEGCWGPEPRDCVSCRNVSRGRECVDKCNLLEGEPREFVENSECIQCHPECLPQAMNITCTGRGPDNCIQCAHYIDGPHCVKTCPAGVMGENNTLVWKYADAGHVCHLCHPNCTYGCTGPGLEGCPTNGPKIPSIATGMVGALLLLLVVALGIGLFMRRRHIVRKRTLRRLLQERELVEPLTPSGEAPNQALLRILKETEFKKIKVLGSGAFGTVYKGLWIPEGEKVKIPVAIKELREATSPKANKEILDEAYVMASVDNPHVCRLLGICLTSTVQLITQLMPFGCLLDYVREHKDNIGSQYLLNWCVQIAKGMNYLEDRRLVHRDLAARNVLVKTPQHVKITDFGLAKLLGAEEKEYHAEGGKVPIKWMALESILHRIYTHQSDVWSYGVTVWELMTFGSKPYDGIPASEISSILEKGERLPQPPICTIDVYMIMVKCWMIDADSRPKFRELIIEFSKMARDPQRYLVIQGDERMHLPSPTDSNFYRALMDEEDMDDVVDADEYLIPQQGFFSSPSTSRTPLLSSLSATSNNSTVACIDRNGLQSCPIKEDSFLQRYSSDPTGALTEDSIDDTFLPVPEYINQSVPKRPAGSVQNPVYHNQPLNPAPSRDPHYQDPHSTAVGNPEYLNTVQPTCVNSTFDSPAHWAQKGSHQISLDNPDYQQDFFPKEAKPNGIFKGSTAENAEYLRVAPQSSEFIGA

[10] = target: VEGFR-2 (Homo sapiens, UniProt P35968); experiment: VEGFR-2 inhibitory activity, homogeneous luminescence release assay; assay type: biochemical; conditions: reference sorafenib; read-out: VEGFR-2 inhibition IC50
Chain of VEGFR-2 (P35968 20-1356): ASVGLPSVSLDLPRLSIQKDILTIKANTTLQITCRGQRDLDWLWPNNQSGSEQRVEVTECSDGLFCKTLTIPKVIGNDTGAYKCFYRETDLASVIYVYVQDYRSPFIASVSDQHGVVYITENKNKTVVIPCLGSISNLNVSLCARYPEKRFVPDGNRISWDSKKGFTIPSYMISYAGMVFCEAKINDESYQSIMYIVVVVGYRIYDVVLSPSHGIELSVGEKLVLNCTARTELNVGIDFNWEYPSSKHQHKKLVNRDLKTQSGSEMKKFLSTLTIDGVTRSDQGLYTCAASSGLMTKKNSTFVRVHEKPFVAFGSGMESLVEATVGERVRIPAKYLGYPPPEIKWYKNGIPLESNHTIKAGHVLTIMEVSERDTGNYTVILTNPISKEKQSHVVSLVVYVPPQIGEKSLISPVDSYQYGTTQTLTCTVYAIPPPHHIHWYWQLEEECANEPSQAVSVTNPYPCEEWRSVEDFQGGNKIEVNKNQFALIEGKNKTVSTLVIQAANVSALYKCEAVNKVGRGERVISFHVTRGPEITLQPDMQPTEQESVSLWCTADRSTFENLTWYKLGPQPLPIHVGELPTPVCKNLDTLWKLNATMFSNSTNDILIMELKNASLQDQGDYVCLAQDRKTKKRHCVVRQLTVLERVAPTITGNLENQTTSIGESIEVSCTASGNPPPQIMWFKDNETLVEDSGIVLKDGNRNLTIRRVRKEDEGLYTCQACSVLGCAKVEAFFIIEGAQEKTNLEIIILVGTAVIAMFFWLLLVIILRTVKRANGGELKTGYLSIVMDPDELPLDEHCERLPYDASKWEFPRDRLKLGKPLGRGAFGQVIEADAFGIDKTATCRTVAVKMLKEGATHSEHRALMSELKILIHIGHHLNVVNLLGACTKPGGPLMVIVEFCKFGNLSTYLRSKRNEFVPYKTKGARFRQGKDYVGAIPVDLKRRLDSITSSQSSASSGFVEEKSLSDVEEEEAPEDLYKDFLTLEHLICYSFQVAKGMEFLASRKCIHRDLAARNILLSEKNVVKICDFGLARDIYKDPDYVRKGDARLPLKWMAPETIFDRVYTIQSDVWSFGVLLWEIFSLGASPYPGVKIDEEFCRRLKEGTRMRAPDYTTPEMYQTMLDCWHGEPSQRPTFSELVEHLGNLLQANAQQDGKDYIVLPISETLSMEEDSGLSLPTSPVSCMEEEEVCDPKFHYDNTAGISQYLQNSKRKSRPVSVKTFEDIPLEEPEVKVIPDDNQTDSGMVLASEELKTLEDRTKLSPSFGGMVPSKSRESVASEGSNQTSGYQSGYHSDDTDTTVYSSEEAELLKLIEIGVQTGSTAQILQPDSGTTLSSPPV
Source text: […]. Briefly, these μM inhibitory concentrations recommend greatly the proposed rationale design for the investigated compounds to act as promising dual EGFR/VEGFR-2 inhibitors.

[11] = tested on: HepG-2; experiment: Apoptosis analysis, FITC Annexin-V/PI kit; assay type: cell-based; conditions: HepG-2 treated with 10b at 13.81 μM
Source text: This was accompanied by significant elevations in the percentage of the AnxV-FITC apoptotic cells in both the early (from 0.36 to 14.52%) and late (from 0.21 to 24.45%) apoptotic phases, compared to the control (Fig. 5 and 6). Accordingly, we can confirm the exact mechanism of the anticancer activity of 10b to be due to the programmed apoptosis pathway.
This was done using the FITC Annexin-V/PI kit.[49]

[12] = tested on: HepG2; experiment: Cell cycle analysis by flow cytometry; assay type: cell-based; conditions: HepG2 treated with 10b at 13.81 μM; control 36.19%

| SMILES | IC50 [1] [µM] | anti-proliferative activity against MCF-7, in words [1] | E. coli Diameter of inhibition zone (mm) [2] [mm] | antimicrobial activity with E. coli, in words [2] | E. coli % Activity index [2] [%] | A. flavus Diameter of inhibition zone (mm) [3] [mm] | antimicrobial activity with A. flavus, in words [3] | A. flavus % Activity index [3] [%] | IC50 [4] [µM] | anti-proliferative activity against HepG-2, in words [4] | S. aureus Diameter of inhibition zone (mm) [5] [mm] | antimicrobial activity with S. aureus, in words [5] | S. aureus % Activity index [5] [%] | C. albicans Diameter of inhibition zone (mm) [6] [mm] | antimicrobial activity with C. albicans, in words [6] | C. albicans % Activity index [6] [%] | P. aeuroginosa Diameter of inhibition zone (mm) [7] [mm] | antimicrobial activity with P. aeuroginosa, in words [7] | P. aeuroginosa % Activity index [7] [%] | B. subtilis Diameter of inhibition zone (mm) [8] [mm] | further results |
| --- | --- | --- | --- | --- | --- | --- | --- | --- | --- | --- | --- | --- | --- | --- | --- | --- | --- | --- | --- | --- | --- |
| N#Cc1c(-c2cccs2)cc(-c2ccc(O)cc2)nc1N [2a, 2-Amino-6-(4-hydroxyphenyl)-4-(thiophen-2-yl)nicotinonitrile] | 9.59 ± 0.8 | very strong | 9 | moderate | 42.8 | 12 | moderate | 46.1 | 8.42 ± 0.6 | very strong | 10 | moderate | 55.5 | 18 | strong | 64.3 | 12 | strong | 63.1 | 15 | antimicrobial activity with B. subtilis, in words [8]: strong; B. subtilis % Activity index [8]: 68.2%; IC50 [9]: 209 nM; melting point: 260 °C; IC50 [10]: 195 nM |
| NC(=S)n1nc(-c2ccc(Cl)c(Cl)c2)cc1-c1cccs1 [10b, 3-(3,4-dichlorophenyl)-5-(thiophen-2-yl)-1H-pyrazole-1-carbothioamide] | 23.2 ± 1.8 | moderate | 9 | moderate | 42.8 | 14 | moderate | 53.8 | 13.8 ± 1.1 | strong | 12 | very strong | 66.7 | 20 | very strong | 71.4 | 13 | very strong | 68.4 | 17 | AnxV-FITC apoptotic cells, late apoptotic phase ([11]; control 0.21%): 24.45%; total apoptosis percentage ([11]; control 1.75): 44.26%; AnxV-FITC apoptotic cells, early apoptotic phase ([11]; control […]): 14.52%; fold change of S phase population compared to control [12]: 1.37 fold; antimicrobial activity with B. subtilis, in words [8]: very strong; B. subtilis % Activity index [8]: 77.3%; IC50 [9]: 161 nM; IC50 [10]: 141 nM |
| CCOC(=O)CN1N=C(c2ccc(O)cc2)CC1c1cccs1 (stereo not shown) [15a, ethyl 2-(3-(4-hydroxyphenyl)-5-(thiophen-2-yl)-4,5-dihydro-1H-pyrazol-1-yl)acetate] | 9.48 ± 0.7 | very strong | 9 | moderate | 42.8 | 15 | moderate | 57.7 | 21.4 ± 1.5 | moderate | 10 | moderate | 55.5 | 18 | strong | 64.3 | 14 | strong | 73.7 | 15 | antimicrobial activity with B. subtilis, in words [8]: strong; B. subtilis % Activity index [8]: 68.2%; IC50 [9]: 894 nM; melting point: 65 °C; IC50 [10]: 1140 nM |
| Oc1ccc(C2=NNC(c3cccs3)C2)cc1 (stereo not shown) [7a, 4-(5-(thiophen-2-yl)-4,5-dihydro-1H-pyrazol-3-yl)phenol] | 3.54 ± 0.2 | very strong | 12 | very strong | 57.1 | 18 | very strong | 69.2 | 8.13 ± 0.6 | very strong | 15 | very strong | 83.3 | 23 | very strong | 82.1 | 17 | very strong | 89.5 | 19 | antimicrobial activity with B. subtilis, in words [8]: very strong; B. subtilis % Activity index [8]: 86.4%; IC50 [9]: 266 nM; melting point: 100 to 102 °C; IC50 [10]: 509 nM |
